Key:
[1] = tested on: barnyard grass; assay: Test Example 3: herbicidal effect by foliage application, Wagner pot (Table 18, symbol H); type: in vivo, barnyard grass (Echinochloa crus-galli); settings: 320 g/ha
How it was run: (§1)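 Plants were sown in alluvial soil held under 0.1–0.5 cm standing water and grown 14 days in a greenhouse at 25–30 °C. An emulsifiable formulation, water-diluted to the set dose, was then sprayed onto the foliage, and effects were scored three weeks later using previously defined criteria.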

[2] = tested on: Chinese sprangletop; assay: Test Example 3: herbicidal effect by foliage application, Wagner pot (Table 18, symbol D); type: in vivo, chinese sprangletop (Leptochloa chinensis); settings: 320 g/ha
How it was run: as §1

[3] = tested on: rice flat sedge; assay: Test Example 3: herbicidal effect by foliage application, Wagner pot (Table 18, symbol E); type: in vivo, rice flat sedge (Cyperus iria); settings: 320 g/ha
How it was run: as §1

[4] = tested on: southern crabgrass; assay: Test Example 4: herbicidal effect by soil treatment (Table 19, symbol F); type: in vivo, southern crabgrass (Digitaria ciliaris); settings: amount of applied herbicide 320 g/ha
How it was run: (§2)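 Three weeks of greenhouse growth at 25° C. to 30° C. followed a uniform surface spray of water-diluted emulsion at a predetermined herbicide amount. Seeds had been sown beforehand under about 1.5 cm of sterilized diluvial soil. Grading followed criteria set out in an earlier test.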

[5] = tested on: green foxtail; assay: Test Example 4: herbicidal effect by soil treatment (Table 19, symbol G); type: in vivo, green foxtail (Setaria viridis); settings: amount of applied herbicide 320 g/ha
How it was run: as §2

[6] = tested on: barnyard grass; assay: Test Example 4: herbicidal effect by soil treatment (Table 19, symbol H); type: in vivo, barnyard grass (Echinochloa crus-galli); settings: amount of applied herbicide 320 g/ha
How it was run: as §2

[7] = tested on: wild oat; assay: Test Example 4: herbicidal effect by soil treatment (Table 19, symbol I); type: in vivo, wild oat (Avena fatua); settings: amount of applied herbicide 320 g/ha
How it was run: as §2

[8] = tested on: blackgrass; assay: Test Example 4: herbicidal effect by soil treatment (Table 19, symbol J); type: in vivo, blackgrass (Alopecurus myosuroides); settings: amount of applied herbicide 320 g/ha
How it was run: as §2

[9] = tested on: Italian ryegrass; assay: Test Example 4: herbicidal effect by soil treatment (Table 19, symbol K); type: in vivo, Italian ryegrass (Lolium multiflorum); settings: amount of applied herbicide 320 g/ha
How it was run: as §2

[10] = tested on: windgrass; assay: Test Example 4: herbicidal effect by soil treatment (Table 19, symbol L); type: in vivo, windgrass (Apera spica-venti); settings: amount of applied herbicide 320 g/ha
How it was run: as §2

[11] = tested on: velvetleaf; assay: Test Example 4: herbicidal effect by soil treatment (Table 19, symbol M); type: in vivo, velvetleaf (Abutilon theophrasti); settings: amount of applied herbicide 320 g/ha
How it was run: as §2

[12] = tested on: redroot pigweed; assay: Test Example 4: herbicidal effect by soil treatment (Table 19, symbol N); type: in vivo, redroot pigweed (Amaranthus retroflexus); settings: amount of applied herbicide 320 g/ha
How it was run: as §2

[13] = tested on: lambsquarters; assay: Test Example 4: herbicidal effect by soil treatment (Table 19, symbol O); type: in vivo, lambsquarters (Chenopodium album); settings: amount of applied herbicide 320 g/ha
How it was run: as §2

[14] = tested on: chickweed; assay: Test Example 4: herbicidal effect by soil treatment (Table 19, symbol P); type: in vivo, common chickweed (Stellaria media); settings: amount of applied herbicide 320 g/ha
How it was run: as §2

[15] = tested on: persian speedwell; assay: Test Example 4: herbicidal effect by soil treatment (Table 19, symbol R); type: in vivo, Persian speedwell (Veronica persica); settings: amount of applied herbicide 320 g/ha
How it was run: as §2

[16] = tested on: southern crabgrass; assay: Test Example 5: herbicidal effect by foliage application, plastic box (Table 20, symbol F); type: in vivo, southern crabgrass (Digitaria ciliaris); settings: 320 g/ha, foliage application after 14-day growth, evaluated three weeks after application
How it was run: (§3)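 Plants sown in sterilized diluvial soil and grown 14 days in a greenhouse at 25° C to 30° C, then sprayed on the foliage with the compound's emulsion diluted in water to a predetermined herbicide amount. Injury to weeds and crops scored three weeks after application on a visual rating scale.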

[17] = tested on: green foxtail; assay: Test Example 5: herbicidal effect by foliage application, plastic box (Table 20, symbol G); type: in vivo, green foxtail (Setaria viridis); settings: 320 g/ha, foliage application after 14-day growth, evaluated three weeks after application
How it was run: as §3

[18] = tested on: barnyard grass; assay: Test Example 5: herbicidal effect by foliage application, plastic box (Table 20, symbol H); type: in vivo, barnyard grass (Echinochloa crus-galli); settings: 320 g/ha, foliage application after 14-day growth, evaluated three weeks after application
How it was run: as §3

[19] = tested on: wild oat; assay: Test Example 5: herbicidal effect by foliage application, plastic box (Table 20, symbol I); type: in vivo, wild oat (Avena fatua); settings: 320 g/ha, foliage application after 14-day growth, evaluated three weeks after application
How it was run: as §3

[20] = tested on: blackgrass; assay: Test Example 5: herbicidal effect by foliage application, plastic box (Table 20, symbol J); type: in vivo, blackgrass (Alopecurus myosuroides); settings: 320 g/ha, foliage application after 14-day growth, evaluated three weeks after application
How it was run: as §3

[21] = tested on: Italian ryegrass; assay: Test Example 5: herbicidal effect by foliage application, plastic box (Table 20, symbol K); type: in vivo, Italian ryegrass (Lolium multiflorum); settings: 320 g/ha, foliage application after 14-day growth, evaluated three weeks after application
How it was run: as §3

[22] = tested on: windgrass; assay: Test Example 5: herbicidal effect by foliage application, plastic box (Table 20, symbol L); type: in vivo, windgrass (Apera spica-venti); settings: 320 g/ha, foliage application after 14-day growth, evaluated three weeks after application
How it was run: as §3

[23] = tested on: velvetleaf; assay: Test Example 5: herbicidal effect by foliage application, plastic box (Table 20, symbol M); type: in vivo, velvetleaf (Abutilon theophrasti); settings: 320 g/ha, foliage application after 14-day growth, evaluated three weeks after application
How it was run: as §3

[24] = tested on: redroot pigweed; assay: Test Example 5: herbicidal effect by foliage application, plastic box (Table 20, symbol N); type: in vivo, redroot pigweed (Amaranthus retroflexus); settings: 320 g/ha, foliage application after 14-day growth, evaluated three weeks after application
How it was run: as §3

[25] = tested on: lambsquarters; assay: Test Example 5: herbicidal effect by foliage application, plastic box (Table 20, symbol O); type: in vivo, lambsquarters (Chenopodium album); settings: 320 g/ha, foliage application after 14-day growth, evaluated three weeks after application
How it was run: as §3

[26] = tested on: chickweed; assay: Test Example 5: herbicidal effect by foliage application, plastic box (Table 20, symbol P); type: in vivo, common chickweed (Stellaria media); settings: 320 g/ha, foliage application after 14-day growth, evaluated three weeks after application
How it was run: as §3

[27] = tested on: persian speedwell; assay: Test Example 5: herbicidal effect by foliage application, plastic box (Table 20, symbol R); type: in vivo, Persian speedwell (Veronica persica); settings: 320 g/ha, foliage application after 14-day growth, evaluated three weeks after application
How it was run: as §3

Structure (SMILES)	herbicidal effect on barnyard grass (H) [1]	herbicidal effect on Chinese sprangletop (D) [2]	herbicidal effect on rice flat sedge (E) [3]	Herbicidal effect by soil treatment, F: southern crabgrass [4]	Herbicidal effect by soil treatment, G: green foxtail [5]	Herbicidal effect by soil treatment, H: barnyard grass [6]	Herbicidal effect by soil treatment, I: wild oat [7]	Herbicidal effect by soil treatment, J: blackgrass [8]	Herbicidal effect by soil treatment, K: Italian ryegrass [9]	Herbicidal effect by soil treatment, L: windgrass [10]	Herbicidal effect by soil treatment, M: velvetleaf [11]	Herbicidal effect by soil treatment, N: redroot pigweed [12]	Herbicidal effect by soil treatment, O: lambsquarters [13]	Herbicidal effect by soil treatment, P: chickweed [14]	Herbicidal effect by soil treatment, R: persian speedwell [15]	herbicidal effect on F: southern crabgrass (evaluation grade 0-5) [16]	herbicidal effect on G: green foxtail (evaluation grade 0-5) [17]	herbicidal effect on H: barnyard grass (evaluation grade 0-5) [18]	herbicidal effect on I: wild oat (evaluation grade 0-5) [19]	herbicidal effect on J: blackgrass (evaluation grade 0-5) [20]	further results
Cc1ccc2c(-c3c(O)c(C)nn(C)c3=O)c(-c3ccc(OC(F)F)cc3)sc2c1 [3-151]	3 (Herbicidal rate of 40% or more and less than 70%)	0 (Herbicidal rate of 5% or less (almost no effect))	3 (Herbicidal rate of 40% or more and less than 70%)	0 (Herbicidal rate of 5% or less (almost no effect))	0 (Herbicidal rate of 5% or less (almost no effect))	0 (Herbicidal rate of 5% or less (almost no effect))	0 (Herbicidal rate of 5% or less (almost no effect))	0 (Herbicidal rate of 5% or less (almost no effect))	0 (Herbicidal rate of 5% or less (almost no effect))	0 (Herbicidal rate of 5% or less (almost no effect))	0 (Herbicidal rate of 5% or less (almost no effect))	0 (Herbicidal rate of 5% or less (almost no effect))	0 (Herbicidal rate of 5% or less (almost no effect))	1 (Herbicidal rate of 5% or more and less than 20%)	5 (Herbicidal rate of 90% or more (almost completely withered))	0 (Herbicidal rate of 5% or less (almost no effect))	0 (Herbicidal rate of 5% or less (almost no effect))	0 (Herbicidal rate of 5% or less (almost no effect))	0 (Herbicidal rate of 5% or less (almost no effect))	0 (Herbicidal rate of 5% or less (almost no effect))	herbicidal effect on K: Italian ryegrass (evaluation grade 0-5) [21]: 2 (Herbicidal rate of 20% or more and less than 40%); herbicidal effect on L: windgrass (evaluation grade 0-5) [22]: 0 (Herbicidal rate of 5% or less (almost no effect)); herbicidal effect on M: velvetleaf (evaluation grade 0-5) [23]: 3 (Herbicidal rate of 40% or more and less than 70%); herbicidal effect on N: redroot pigweed (evaluation grade 0-5) [24]: 2 (Herbicidal rate of 20% or more and less than 40%); herbicidal effect on O: lambsquarters (evaluation grade 0-5) [25]: 3 (Herbicidal rate of 40% or more and less than 70%); herbicidal effect on P: chickweed (evaluation grade 0-5) [26]: 5 (Herbicidal rate of 90% or more (almost completely withered)); herbicidal effect on R: persian speedwell (evaluation grade 0-5) [27]: 5 (Herbicidal rate of 90% or more (almost completely withered))
COc1ccccc1-c1sc2cc(S(C)(=O)=O)ccc2c1-c1c(O)c(C)nn(C)c1=O [3-165]	5 (Herbicidal rate of 90% or more (almost completely withered))	4 (Herbicidal rate of 70% or more and less than 90%)	3 (Herbicidal rate of 40% or more and less than 70%)	5 (Herbicidal rate of 90% or more (almost completely withered))	3 (Herbicidal rate of 40% or more and less than 70%)	3 (Herbicidal rate of 40% or more and less than 70%)	0 (Herbicidal rate of 5% or less (almost no effect))	3 (Herbicidal rate of 40% or more and less than 70%)	4 (Herbicidal rate of 70% or more and less than 90%)	3 (Herbicidal rate of 40% or more and less than 70%)	1 (Herbicidal rate of 5% or more and less than 20%)	4 (Herbicidal rate of 70% or more and less than 90%)	0 (Herbicidal rate of 5% or less (almost no effect))	5 (Herbicidal rate of 90% or more (almost completely withered))	5 (Herbicidal rate of 90% or more (almost completely withered))	5 (Herbicidal rate of 90% or more (almost completely withered))	4 (Herbicidal rate of 70% or more and less than 90%)	5 (Herbicidal rate of 90% or more (almost completely withered))	4 (Herbicidal rate of 70% or more and less than 90%)	4 (Herbicidal rate of 70% or more and less than 90%)	herbicidal effect on K: Italian ryegrass (evaluation grade 0-5) [21]: 4 (Herbicidal rate of 70% or more and less than 90%); herbicidal effect on L: windgrass (evaluation grade 0-5) [22]: 5 (Herbicidal rate of 90% or more (almost completely withered)); herbicidal effect on M: velvetleaf (evaluation grade 0-5) [23]: 5 (Herbicidal rate of 90% or more (almost completely withered)); herbicidal effect on N: redroot pigweed (evaluation grade 0-5) [24]: 4 (Herbicidal rate of 70% or more and less than 90%); herbicidal effect on O: lambsquarters (evaluation grade 0-5) [25]: 4 (Herbicidal rate of 70% or more and less than 90%); herbicidal effect on P: chickweed (evaluation grade 0-5) [26]: 5 (Herbicidal rate of 90% or more (almost completely withered)); herbicidal effect on R: persian speedwell (evaluation grade 0-5) [27]: 5 (Herbicidal rate of 90% or more (almost completely withered))

From patent publication US20230085307A1, “PYRIDAZINONE COMPOUND AND HERBICIDE” (NISSAN CHEMICAL CORPORATION, priority 2019, published 2023)
